# Results taken from patent US9120749B2, “Quinoline derivatives and MELK inhibitors containing the same” (ONCOTHERAPY SCIENCE, INC., priority 2010, dated 2015).
# Structures can show the parent of a compound that is named as a salt. Where two headings read alike, the source gives them in different places.
# Tests used:
# MELK = MELK (Homo sapiens, UniProt Q14680); assay: Kinase assay: MELK activity, phosphorylation of FITC-labeled histone H3 peptide measured by IMAP fluorescence polarization; assay type: biochemical; conditions: read-out: IC50 (μM) (kinase assay)
# How it was run: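 A FITC-labelled histone H3 peptide served as substrate, with compounds serially diluted to 1% DMSO final. Reactions were stopped with three volumes of IMAP progressive binding solution. After 0.5 h at room temperature, fluorescence polarization was read.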
# T47D cells = assay: Cell-based assay: anti-proliferative activity, Cell Counting Kit-8, 72 hours (T47D)
# How it was run: (§1)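 T47D, A549 and BT-549 cells, with MELK-negative HT-1197 as control (MELK status checked by western blot), seeded at 2,000–3,000 cells/well. Growth measured by CCK-8 72 hours after inhibitor exposure; IC50 values calculated.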
# A549 cells = assay: Cell-based assay: anti-proliferative activity, Cell Counting Kit-8, 72 hours (A549); conditions: 72 hours
# How it was run: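 Cell Counting Kit-8 read-out of A549 growth after 72 hours of inhibitor exposure, cells plated in 96-well format. Values reported as IC50.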
# HT-1197 cells = assay: Cell-based assay: anti-proliferative activity, Cell Counting Kit-8, 72 hours (HT-1197, negative control without MELK expression); conditions: 72 hours
# How it was run: as §1
# 22Rv1 = assay: Cell-based assay: anti-proliferative activity, Cell Counting Kit-8, 72 hours (22Rv1); conditions: Homo sapiens; 22Rv1 cells
# Protocol: Active candidate inhibitors against MELK were evaluated for their target-specific cytotoxicity using T47D, A549, BT-549, and HT-1197 cells was used for negative control. 100 micro-L of cell suspension was seeded onto 96-well microtiter plate (ViewPlate-96FTC, PerkinElmer). The initial cell concentration of T47D, A549, BT-549, and HT-1197 were 3,000 cells/well, 2,000 cells/well and 2,500 cells/well, respectively. Cellular growth was determined using Cell Counting Kit-8 (DOJINDO) at 72 hours after the exposure of the candidate inhibitors. […] Accurate IC50 values were calculated as described previously.
# DU4475 = assay: Cell-based assay: anti-proliferative activity, Cell Counting Kit-8, 72 hours (DU4475); conditions: DU4475 cells; hydrochloride
# 22Rv1 cells = assay: Cell-based assay: anti-proliferative activity, Cell Counting Kit-8, 72 hours (22Rv1); conditions: Homo sapiens
# DU4475 cells = assay: Cell-based assay: anti-proliferative activity, Cell Counting Kit-8, 72 hours (DU4475); conditions: Homo sapiens, DU-4475
# [1] = HT1197 cells (negative control, no MELK expression), hydrochloride
# [2] = MELK kinase assay, IMAP fluorescence polarization, 50 micro-M ATP
# [3] = Homo sapiens, HT1197, 72 h, HT1197 cells (negative control)
# MELK, sequence (Q14680 whole entry, looked up): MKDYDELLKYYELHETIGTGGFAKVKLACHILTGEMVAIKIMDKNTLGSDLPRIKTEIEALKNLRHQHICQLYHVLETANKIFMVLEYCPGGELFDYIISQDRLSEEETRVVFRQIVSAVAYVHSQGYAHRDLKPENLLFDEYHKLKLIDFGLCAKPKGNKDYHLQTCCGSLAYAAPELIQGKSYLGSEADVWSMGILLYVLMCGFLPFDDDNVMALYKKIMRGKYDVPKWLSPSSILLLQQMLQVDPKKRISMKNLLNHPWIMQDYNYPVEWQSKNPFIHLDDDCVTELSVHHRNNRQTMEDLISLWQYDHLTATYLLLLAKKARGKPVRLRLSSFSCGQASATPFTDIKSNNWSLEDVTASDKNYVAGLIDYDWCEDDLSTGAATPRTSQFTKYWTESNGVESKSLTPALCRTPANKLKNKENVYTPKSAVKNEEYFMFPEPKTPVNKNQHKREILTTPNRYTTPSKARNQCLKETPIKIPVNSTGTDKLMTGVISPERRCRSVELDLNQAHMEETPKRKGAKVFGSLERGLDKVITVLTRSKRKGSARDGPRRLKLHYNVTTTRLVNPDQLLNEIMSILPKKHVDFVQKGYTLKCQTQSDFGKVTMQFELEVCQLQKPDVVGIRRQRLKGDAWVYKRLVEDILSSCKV
SMILES,IC50 (MELK; hydrochloride),"IC50 (T47D cells; 72 hours, hydrochloride)",IC50 (A549 cells; hydrochloride),IC50 (HT-1197 cells; [1]),IC50 (22Rv1),IC50 (DU4475),IC50 (MELK; [2]),"IC50 (T47D cells; Homo sapiens, T47D, 72 h)","IC50 (A549 cells; Homo sapiens, A549, 72 h)",IC50 (HT-1197 cells; [3]),IC50 (22Rv1 cells),IC50 (DU4475 cells)
"NCc1ccc(Nc2c(C(=O)C3CC3)cnc3ccc(-c4cc(Cl)c(O)c(Cl)c4)cc23)cc1 [Example 508, (4-(4-(aminomethyl)phenylamino)-6-(3,5-dichloro-4-hydroxyphenyl)quinolin-3-yl)(cyclopropyl)methanone hydrochloride]",0.0017 µM,0.078 µM,0.067 µM,0.49 µM,0.099 µM,0.02 µM,,,,,,
"COc1cc(-c2ccc3ncc(C(=O)C4CC4)c(N[C@H]4CC[C@H](CN)CC4)c3c2)cc(Cl)c1O [Example 494, (4-(4-(aminomethyl)cyclohexylamino)-6-(3-chloro-4-hydroxy-5-methoxyphenyl)quinolin-3-yl)(cyclopropyl)methanone hydrochloride]",0.0016 µM,0.081 µM,0.085 µM,0.48 µM,0.13 µM,0.055 µM,,,,,,
"CN(C)CCOc1ccc(Nc2c(S(C)(=O)=O)cnc3ccc(-c4cc(Cl)c(O)c(Cl)c4)cc23)cn1 [Example 884, 2,6-dichloro-4-(4-((6-(2-(dimethylamino)ethoxy)pyridin-3-yl)amino)-3-(methylsulfonyl)quinolin-6-yl)phenol hydrochloride]",,,,,,,0.0035 µM,0.91 µM,2.1 µM,13 µM,4.1 µM,0.51 µM
"CC(=O)c1cnc2ccc(-c3cc(Cl)c(O)c(Cl)c3)cc2c1Nc1cc(CCN2CCCC2)cnc1C [Example 897, 1-(6-(3,5-dichloro-4-hydroxyphenyl)-4-((2-methyl-5-(2-(pyrrolidin-1-yl)ethyl)pyridin-3-yl)amino)quinolin-3-yl)ethanone]",,,,,,,0.021 µM,4.5 µM,8.5 µM,71 µM,11 µM,8.8 µM
"CC(=O)c1cnc2ccc(-c3cc(F)c(O)c(Cl)c3)cc2c1N[C@H]1CC[C@H](NC(=O)[C@@H]2CCCN2)CC1 [Example 921, (S)—N-((1R,4S)-4-(3-acetyl-6-(3-chloro-5-fluoro-4-hydroxyphenyl)quinolin-4-ylamino)cyclohexyl)pyrrolidine-2-carboxamide]",,,,,,,0.012 µM,0.048 µM,1.2 µM,10 µM,0.21 µM,0.068 µM
"CC(=O)c1cnc2ccc(-c3ccc4[nH]ncc4c3)cc2c1N[C@H]1CC[C@H](CN(C)C)CC1 [Example 910, 1-(4-((1R,4R)-4-((dimethylamino)methyl)cyclohexyl)amino)-6-(1H-indazol-5-yl)quinolin-3-yl)ethanone hydrochloride]",,,,,,,0.1 µM,6 µM,2.6 µM,9.8 µM,3.4 µM,5.4 µM
"CC(=O)c1cnc2ccc(-c3cc(Cl)c(O)c(Cl)c3)cc2c1N[C@H]1CC[C@H](C(=O)N(C)C)CC1 [Example 865, (1r,4r)-4-((3-acetyl-6-(3,5-dichloro-4-hydroxyphenyl)quinolin-4-yl)amino)-N,N-dimethylcyclohexanecarboxamide hydrochloride]",,,,,,,0.0093 µM,0.38 µM,0.86 µM,3.9 µM,1.5 µM,0.94 µM
"CC(=O)c1cnc2ccc(-c3ccc4nc[nH]c4c3)cc2c1Nc1ccc(N2CCN(C)CC2)nc1 [Example 901, 1-(6-(1H-benzo[d]imidazol-6-yl)-4-((6-(4-methylpiperazin-1-yl)pyridin-3-yl)amino)quinolin-3-yl)ethanone hydrochloride]",,,,,,,0.1 µM,1.2 µM,2.3 µM,9.1 µM,2.1 µM,9.5 µM
"CC(=O)c1cnc2ccc(-c3cc(F)c(O)c(Cl)c3)cc2c1N[C@H]1CC[C@H](NC(=O)C2CCCN2C)CC1 (stereo partly drawn) [Example 874, N-(1R,4R)-4-((3-acetyl-6-(3-chloro-5-fluoro-4-hydroxyphenyl)quinolin-4-yl)amino)cyclohexyl)-1-methylpyrrolidine-2-carboxamide hydrochloride]",,,,,,,0.016 µM,0.04 µM,0.14 µM,1 µM,0.18 µM,0.12 µM
"CN(C)C[C@H]1CC[C@H](Nc2c(C(=O)C(C)(C)C)cnc3ccc(-c4cc(F)c(O)c(Cl)c4)cc23)CC1 [Example 919, 1-(6-(3-chloro-5-fluoro-4-hydroxy-phenyl)-4-((1R,4R)-4-((dimethylamino)methyl)cyclohexyl)amino)quinolin-3-yl)-2,2-dimethylpropan-1-one hydrochloride]",,,,,,,0.034 µM,1.9 µM,4.3 µM,6.4 µM,3.5 µM,2.5 µM
"CC(=O)c1cnc2ccc(-c3cn[nH]c3)cc2c1N[C@H]1CC[C@H](CN(C)C)CC1 [Example 912, 1-(4-((1R,4R)-4-((dimethylamino)methyl)cyclohexyl)amino)-6-(1H-pyrazol-4-yl)quinolin-3-yl)ethanone hydrochloride]",,,,,,,0.074 µM,4.2 µM,1.3 µM,3 µM,1.7 µM,1.4 µM
"CC(=O)c1cnc2ccc(-c3cc(Cl)c(O)c(Cl)c3)cc2c1N[C@H]1CC[C@H](NC(=O)C2CCCN2C)CC1 (stereo partly drawn) [Example 875, N-(1R,4R)-4-((3-acetyl-6-(3,5-dichloro-4-hydroxyphenyl)quinolin-4-yl)amino)cyclohexyl)-1-methylpyrrolidine-2-carboxamide hydrochloride]",,,,,,,0.0035 µM,0.14 µM,0.24 µM,4.4 µM,0.29 µM,0.21 µM
CC(=O)c1cnc2ccc(-c3cc(F)c(O)c(Cl)c3)cc2c1N[C@H]1CC[C@H](NC(=O)C(N)C(C)C)CC1 (stereo partly drawn) [Example 907],,,,,,,0.0047 µM,0.016 µM,0.18 µM,3.7 µM,0.059 µM,0.033 µM
"CC(=O)c1cnc2cc(F)c(-c3cc(Cl)c(O)c(Cl)c3)cc2c1N[C@H]1CC[C@H](CN2CCCC2)CC1 [Example 923, 1-(6-(3,5-dichloro-4-hydroxyphenyl)-7-fluoro-4-((1R,4R)-4-(pyrrolidin-1-ylmethyl)cyclohexyl)amino)quinolin-3-yl)ethanone hydrochloride]",,,,,,,0.007 µM,0.63 µM,0.39 µM,2.5 µM,0.29 µM,0.2 µM
"CC(=O)c1cnc2ccc(-c3cc(F)c(O)c(Cl)c3)cc2c1N[C@H]1CC[C@H](C(=O)NCCN(C)C)CC1 [Example 893, (1r,4r)-4-((3-acetyl-6-(3-chloro-5-fluoro-4-hydroxyphenyl)quinolin-4-yl)amino)-N-(2-(dimethylamino)ethyl) cyclohexanecarboxamide hydrochloride]",,,,,,,0.0052 µM,0.59 µM,100 µM,100 µM,1.6 µM,0.67 µM
"CS(=O)(=O)c1cnc2ccc(-c3cc(F)c(O)c(Cl)c3)cc2c1Nc1ccc(N2CCCC(N)C2)nc1 (stereo not drawn) [Example 909, 4-(4-(6-(3-aminopiperidin-1-yl)pyridin-3-ylamino)-3-(methylsulfonyl)quinolin-6-yl)-2-chloro-6-fluorophenol]",,,,,,,0.0016 µM,0.19 µM,2.8 µM,10 µM,0.44 µM,0.042 µM
"CC(=O)c1cnc2cc(F)c(-c3cc(F)c(O)c(Cl)c3)cc2c1N[C@H]1CC[C@H](CN2CCCC2)CC1 [Example 925, 1-(6-(3-chloro-5-fluoro-4-hydroxy-phenyl)-7-fluoro-4-((1R,4R)-4-(pyrrolidin-1-ylmethyl)cyclohexyl)amino)quinolin-3-yl)ethanone hydrochloride]",,,,,,,0.019 µM,0.52 µM,0.38 µM,1.5 µM,0.27 µM,0.27 µM
"CC(=O)c1cnc2cc(F)c(-c3cc(Cl)c(O)c(Cl)c3)cc2c1N[C@H]1CC[C@H](CN(C)C)CC1 [Example 903, 1-(6-(3,5-dichloro-4-hydroxyphenyl)-4-((1R,4R)-4-((dimethylamino)methyl)cyclohexyl)amino)-7-fluoroquinolin-3-yl)ethanone hydrochloride]",,,,,,,0.0017 µM,0.55 µM,0.36 µM,1.5 µM,0.27 µM,0.16 µM
"CC(=O)c1cnc2cc(C)c(-c3cc(Cl)c(O)c(Cl)c3)cc2c1Nc1ccc(N2CCN(C)CC2)nc1 [Example 866, 1-(6-(3,5-dichloro-4-hydroxyphenyl)-7-methyl-4-((6-(4-methylpiperazin-1-yl)pyridin-3-yl)amino)quinolin-3-yl)ethanone hydrochloride]",,,,,,,0.34 µM,2.4 µM,2.3 µM,4.5 µM,4.1 µM,2.9 µM
